Key:
[1] = target: T1, acyl-CoA:cholesterol acyltransferase (ACAT) (Oryctolagus cuniculus, UniProt G1SFD9); assay: in vitro inhibition of ACAT (cholesterol esterification by radio-labeled oleic acid, rabbit intestinal microsomes); format: biochemical
T1 construct: tissue preparation containing rabbit intestinal microsomes; from tissue; host or cells: rabbit intestinal microsomes
T1 sequence (G1SFD9 1-524): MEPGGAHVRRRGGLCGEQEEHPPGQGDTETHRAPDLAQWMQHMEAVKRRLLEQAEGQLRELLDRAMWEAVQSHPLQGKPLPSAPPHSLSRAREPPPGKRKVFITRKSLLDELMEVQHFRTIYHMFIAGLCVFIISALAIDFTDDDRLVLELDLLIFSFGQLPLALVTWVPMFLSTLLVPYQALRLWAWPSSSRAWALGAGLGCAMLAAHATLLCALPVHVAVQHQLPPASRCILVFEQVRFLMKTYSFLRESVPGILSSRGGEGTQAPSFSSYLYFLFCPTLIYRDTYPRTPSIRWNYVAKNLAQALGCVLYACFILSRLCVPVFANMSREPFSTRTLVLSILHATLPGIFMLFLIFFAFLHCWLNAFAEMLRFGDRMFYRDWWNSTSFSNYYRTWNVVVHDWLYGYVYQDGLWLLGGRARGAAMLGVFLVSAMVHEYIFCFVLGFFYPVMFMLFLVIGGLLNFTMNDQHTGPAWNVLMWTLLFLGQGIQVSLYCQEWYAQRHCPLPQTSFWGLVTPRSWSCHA
Excerpt: The test assesses the ability of a compound to inhibit the acylation of cholesterol by oleic acid by measuring the amount of radio-labeled cholesterol oleate formed from radio-labeled oleic acid in a tissue preparation containing rabbit intestinal microsomes.

total cholesterol = assay: cholesterol-fed rat test; format: in vivo, male, Sprague-Dawley rats; details: drug admixed in diet with 5.5% peanut oil, 1.5% cholesterol and 0.3% cholic acid, one week, nonfasted
Excerpt: In the cholesterol-fed rat test, male, Sprague-Dawley rats (approximately 200 g body weight) were randomly divided into groups and provided ad libitum a regular rat chow diet (Purina No. 5002) supplemented with 5.5% peanut oil, 1.5% cholesterol and 0.3% cholic acid, with or without drug admixed at the indicated levels (w/w). After one week, the animals (nonfasted) were etherized and blood was taken from the heart into EDTA (0.14% final concentration) to measure total cholesterol using the Abbott VP Analyzer.

serum cholesterol = assay: cholesterol-fed rabbit test; format: in vivo, male, New Zealand white rabbits; details: oral 50 mg/kg thirty minutes prior to each meal for seven days, serum cholesterol three hours after last meal
Excerpt: In the cholestrol-fed rabbit test, male, New Zealand white rabbits weighing approximately 1 kg were fed a normal diet 40 g per day of rabbit chow (Purina NO. 5321, Ralston Purina Co., 711 West Fuesser Road, Mascoutah, Ill., 62224, USA). After six days on this diet, the rabbits were fed 50 g per day for three days of a cholsterol-enriched diet consisting of one part of a cholesterol-containing chow (Purina Catalog No. 841206WLI, 0.25% cholesterol) and two parts of normal chow. Next, the rabbits were fed 60 g per day for four days of a cholsterol-enriched diet consisting of two parts of a cholesterol-containing chow (Purina Catalog No. 841206WLI, 0.25% cholesterol) and one part of normal chow.
After this meal adaptation and cholesterol loading period, the test compounds of this invention were administered to the test animals in oral doses of 50 mg/kg of body weight thirty minutes prior to each meal for seven days. Control animals were administered vehicle only.
The animals were sacrificed three hours after their last meal in the postabsorptive state. Serum cholesterol levels were determined for each animal, and the data appear in Table 2 expressed as percent change in serum cholesterol level compared to control.

IC50 [1] [nM]	Structure (SMILES)	Percent Reduction in Cholesterol, Rat (total cholesterol) [%]	Percent Reduction in Cholesterol, Rabbit (percent change in serum cholesterol level compared to control) (serum cholesterol) [%]
800	CCCCCCCCCCCCC(C)C(=O)NC(C)c1ccccn1 (centres unmarked) [2-Methyl-N-[1-(2-pyridinyl)ethyl]tetradecanamide]		
1400	CCCCCCCCCCCCCCC(C)C(=O)NC(C)c1ccccn1 (centres unmarked) [2-methyl-N-[1-(2-pyridinyl)ethyl]hexadecanamide]		
34	CCCCCCCC/C=C\CCCCCCC(C)C(=O)Nc1c(OC)cc(OC)cc1OC (centres unmarked) [(Z)-2-methyl-N-(2,4,6-trimethoxyphenyl)-9-octadecenamide]		
780	CCCCCCCC/C=C\CCCCCCCCC(C)(C)C(=O)Nc1c(OC)ncnc1OC [(Z)-N-(4,6-dimethoxy-5-pyrimidinyl)-2,2-dimethyl-11-eicosenamide]		
500	CCCCCCCCCCCCC(C)C(=O)Nc1c(OCC)ncnc1OCC (centres unmarked) [N-(4,6-Diethoxy-5-pyrimidinyl)-2-methyltetradecanamide]		
230	CCCCCCCCCCC(C)(C)C(=O)Nc1c(OC)ncnc1OC [N-(4,6-Dimethoxy-5-pyrimidinyl)-2,2-dimethyldodecanamide]		
260	CCCCCCCCCCCCC(CC)C(=O)Nc1c(OC)ncnc1OC (centres unmarked) [N-(4,6-Dimethoxy-5-pyrimidinyl)-2-ethyltetradecanamide]		
1300	CCCCCCCCCCCCC(C)(C)C(=O)Nc1c(OC)ncnc1OC [N-(4,6-dimethoxy-5-pyrimidinyl)-2,2-dimethyltetradecanamide]		
400	CCCCCCCCCCCCC(C)C(=O)Nc1c(OC)ncnc1OC (centres unmarked) [N-(4,6-dimethoxy-5-pyrimidinyl)-2-methyltetradecanamide]		-29

Continued, compound first:

Structure (SMILES)	IC50 [1] [nM]	Percent Reduction in Cholesterol, Rat (total cholesterol) [%]	Percent Reduction in Cholesterol, Rabbit (percent change in serum cholesterol level compared to control) (serum cholesterol) [%]
CCCCCCCCCCC1(C(=O)Nc2c(OC)cc(OC)cc2OC)CCCC1 [1-Decyl-N-(2,4,6-trimethoxyphenyl)cyclopentanecarboxamide]	7	-52	
CCCCCCCCCCC(C)(C)C(=O)Nc1c(OC)cc(OC)cc1OC [2,2-Dimethyl-N-(2,4,6-trimethoxyphenyl)dodecanamide]		-54	-67
CCCCCCCCCCCCCCC(C)(C)C(=O)NC(C)c1ccccn1 (centres unmarked) [2,2-Dimethyl-N-[1-(2-pyridinyl)ethyl]hexadecanamide]	700		
CCCCCCCCCCCCC(CC)C(=O)Nc1c(OC)cc(OC)cc1OC (centres unmarked) [2-Ethyl-N-(2,4,6-trimethoxyphenyl)tetradecanamide]	50		
CCCCCCCCCCC(CC)C(=O)NC(C)c1ccccn1 (centres unmarked) [2-Ethyl-N-[1-(2-pyridinyl)ethyl]dodecanamide]	1600		
CCCCCCCCCCCCC(C)C(=O)Nc1c(OC)cc(OC)cc1OC (centres unmarked) [2-Methyl-N-(2,4,6-trimethoxyphenyl)tetradecanamide]		-52	-45
CCCCCCCCCCC(C)C(=O)NC(C)c1ccccn1 (centres unmarked) [2-Methyl-N-[1-(2-pyridinyl)ethyl]dodecanamide]	3300		
CCCCCCCCCCC(CCC)C(=O)NC(C)c1ccccn1 (centres unmarked) [2-Propyl-N-[1-(2-pyridinyl)ethyl]dodecanamide]	3700		
CCCCCCCCCCCCC(CC)C(=O)NC(C)c1ccccn1 (centres unmarked) [2-ethyl-N-[1-(2-pyridinyl)ethyl]tetradecanamide]	700		
CCCCCCCC/C=C\CCCCCCCCC(C)(C)C(=O)Nc1c(OC)cc(OC)cc1OC [(Z)-2,2-Dimethyl-N-(2,4,6-trimethoxyphenyl)-11-eicosenamide]	110		
CCCCCCCC/C=C\CCCCCCCCC(C)(C)C(=O)Nc1c(C)cccc1OC [(Z)-N-(2-Methoxy-6-methylphenyl)-2,2-dimethyl-11-eicosenamide]	680		
CCCCCCCCCCC(C)(C)C(=O)Nc1c(C)cccc1OCC [N-(2-Ethoxy-6-methylphenyl)-2,2-dimethyl-dodecanamide]	230		
CCCCCCCCCCC(Cc1ccccc1)C(=O)NC(C)c1ccccn1 (stereo not drawn) [α-Decyl-N-[1-(2-pyridinyl)ethyl]benzenepropanamide]	7000		

From patent publication US4716175A, “Saturated fatty acid amides as inhibitors of acyl-CoA:cholesterol acyltransferase” (Warner-Lambert Company, priority 1987, dated 1987)
